Experimental findings from ChEMBL document CHEMBL4619828, “Discovery of Potent and Orally Bioavailable Small Molecule Antagonists of Toll-like Receptors 7/8/9 (TLR7/8/9)” (ACS Med Chem Lett, 2020) are described below.

The target in series [1] is T1, Toll-like receptor 9 (Homo sapiens, UniProt Q9NR96).
T1 sequence (Q9NR96 whole entry): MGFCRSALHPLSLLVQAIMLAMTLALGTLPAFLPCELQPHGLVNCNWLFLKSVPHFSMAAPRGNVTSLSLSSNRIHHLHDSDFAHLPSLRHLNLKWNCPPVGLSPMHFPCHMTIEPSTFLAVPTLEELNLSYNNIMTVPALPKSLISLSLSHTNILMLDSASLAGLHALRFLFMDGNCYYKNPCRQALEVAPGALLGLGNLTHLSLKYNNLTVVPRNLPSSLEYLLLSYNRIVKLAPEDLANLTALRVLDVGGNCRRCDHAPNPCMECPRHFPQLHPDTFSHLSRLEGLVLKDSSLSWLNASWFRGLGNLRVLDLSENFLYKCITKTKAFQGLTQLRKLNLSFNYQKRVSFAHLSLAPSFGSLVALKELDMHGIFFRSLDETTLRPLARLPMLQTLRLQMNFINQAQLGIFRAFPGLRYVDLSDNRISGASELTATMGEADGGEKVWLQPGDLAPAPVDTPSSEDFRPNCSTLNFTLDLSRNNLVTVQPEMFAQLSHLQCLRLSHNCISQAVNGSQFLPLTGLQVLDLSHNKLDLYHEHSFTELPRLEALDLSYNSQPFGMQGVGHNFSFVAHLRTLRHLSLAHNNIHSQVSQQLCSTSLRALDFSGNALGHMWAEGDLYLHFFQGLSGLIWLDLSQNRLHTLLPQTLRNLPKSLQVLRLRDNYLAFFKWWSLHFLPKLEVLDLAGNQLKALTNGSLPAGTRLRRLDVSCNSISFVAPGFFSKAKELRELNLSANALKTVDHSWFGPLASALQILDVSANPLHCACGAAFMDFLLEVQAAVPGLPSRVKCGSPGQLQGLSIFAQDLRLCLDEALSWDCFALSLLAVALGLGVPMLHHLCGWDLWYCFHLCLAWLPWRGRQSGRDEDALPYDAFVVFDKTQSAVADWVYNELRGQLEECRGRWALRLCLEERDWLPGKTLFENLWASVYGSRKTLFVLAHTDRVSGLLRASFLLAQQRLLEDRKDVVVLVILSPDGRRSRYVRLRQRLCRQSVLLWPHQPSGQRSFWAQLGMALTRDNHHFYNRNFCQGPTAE
Description: Antagonist activity at human TLR9 overexpressed in HEK-Blue cells assessed as inhibition of ODN2006-induced NFkappaB and AP-1 activation preincubated for 30 mins followed by ODN2006 stimulation measured after 22 hrs by quanti-blue SEAP assay. It is filed as cell-based.

The target of another series is Toll-like receptor 4 (Homo sapiens, UniProt O00206). In words: Antagonist activity at human TLR4 overexpressed in HEK-Blue cells assessed as inhibition of […] induced NFkappaB and AP-1 activation preincubated for 30 mins followed by […] stimulation measured after 22 hrs by quanti-blue SEAP assay. Type of series: cell-based.
Chain of Toll-like receptor 4 (O00206 whole entry): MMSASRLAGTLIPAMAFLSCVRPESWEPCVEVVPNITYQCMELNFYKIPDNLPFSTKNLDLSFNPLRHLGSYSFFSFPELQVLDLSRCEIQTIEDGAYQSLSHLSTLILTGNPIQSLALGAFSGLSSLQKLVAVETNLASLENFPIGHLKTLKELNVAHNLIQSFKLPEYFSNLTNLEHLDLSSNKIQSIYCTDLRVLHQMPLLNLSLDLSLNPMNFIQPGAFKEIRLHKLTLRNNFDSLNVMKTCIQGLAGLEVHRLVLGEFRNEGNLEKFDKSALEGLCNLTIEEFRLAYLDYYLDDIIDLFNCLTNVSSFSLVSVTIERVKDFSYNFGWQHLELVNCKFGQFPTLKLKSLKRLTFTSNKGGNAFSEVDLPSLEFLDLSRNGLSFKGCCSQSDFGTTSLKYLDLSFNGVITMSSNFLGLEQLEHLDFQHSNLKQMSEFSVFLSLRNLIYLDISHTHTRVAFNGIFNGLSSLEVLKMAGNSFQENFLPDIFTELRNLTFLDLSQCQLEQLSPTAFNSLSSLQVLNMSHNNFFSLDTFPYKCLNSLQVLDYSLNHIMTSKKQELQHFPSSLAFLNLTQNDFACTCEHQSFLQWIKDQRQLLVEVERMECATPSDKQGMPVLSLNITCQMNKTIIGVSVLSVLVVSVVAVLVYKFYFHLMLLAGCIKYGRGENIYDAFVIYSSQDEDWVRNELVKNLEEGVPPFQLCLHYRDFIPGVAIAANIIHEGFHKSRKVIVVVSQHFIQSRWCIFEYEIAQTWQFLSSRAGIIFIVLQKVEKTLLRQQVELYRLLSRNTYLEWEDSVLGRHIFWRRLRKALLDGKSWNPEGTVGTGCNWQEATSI
In series [2] the target is T1, Toll-like receptor 9. In words: Agonist activity at human TLR9 overexpressed in HEK-Blue cells assessed as NFkappaB expression by reporter gene assay. It is filed as cell-based. On the technique in general: Reporter assays use an easily measured gene product as a stand-in for the process of interest.
Series [3] addresses T1, Toll-like receptor 9. In words: Antagonist activity at TLR9 (unknown origin) in PBMC cells assessed as reduction of IL-6 production. It is filed as cell-based.
Series [4] addresses T1, Toll-like receptor 9. Description: Antagonist activity at TLR9 in human pDC assessed as inhibition of ODN2216-induced IFN-alpha production incubated for 24 hrs measured by ELISA. (In general: ELISA stands for enzyme-linked immunosorbent assay.)
The target of series [5] is T1, Toll-like receptor 9. In words: Antagonist activity at TLR9 in human whole blood cells assessed as inhibition of ODN-2216 induced IL-6 production by ELISA. Type of series: cell-based.
The target in series [6] is T2, Toll-like receptor 9 (Mus musculus, UniProt Q9EQU3).
T2 sequence (Q9EQU3 whole entry): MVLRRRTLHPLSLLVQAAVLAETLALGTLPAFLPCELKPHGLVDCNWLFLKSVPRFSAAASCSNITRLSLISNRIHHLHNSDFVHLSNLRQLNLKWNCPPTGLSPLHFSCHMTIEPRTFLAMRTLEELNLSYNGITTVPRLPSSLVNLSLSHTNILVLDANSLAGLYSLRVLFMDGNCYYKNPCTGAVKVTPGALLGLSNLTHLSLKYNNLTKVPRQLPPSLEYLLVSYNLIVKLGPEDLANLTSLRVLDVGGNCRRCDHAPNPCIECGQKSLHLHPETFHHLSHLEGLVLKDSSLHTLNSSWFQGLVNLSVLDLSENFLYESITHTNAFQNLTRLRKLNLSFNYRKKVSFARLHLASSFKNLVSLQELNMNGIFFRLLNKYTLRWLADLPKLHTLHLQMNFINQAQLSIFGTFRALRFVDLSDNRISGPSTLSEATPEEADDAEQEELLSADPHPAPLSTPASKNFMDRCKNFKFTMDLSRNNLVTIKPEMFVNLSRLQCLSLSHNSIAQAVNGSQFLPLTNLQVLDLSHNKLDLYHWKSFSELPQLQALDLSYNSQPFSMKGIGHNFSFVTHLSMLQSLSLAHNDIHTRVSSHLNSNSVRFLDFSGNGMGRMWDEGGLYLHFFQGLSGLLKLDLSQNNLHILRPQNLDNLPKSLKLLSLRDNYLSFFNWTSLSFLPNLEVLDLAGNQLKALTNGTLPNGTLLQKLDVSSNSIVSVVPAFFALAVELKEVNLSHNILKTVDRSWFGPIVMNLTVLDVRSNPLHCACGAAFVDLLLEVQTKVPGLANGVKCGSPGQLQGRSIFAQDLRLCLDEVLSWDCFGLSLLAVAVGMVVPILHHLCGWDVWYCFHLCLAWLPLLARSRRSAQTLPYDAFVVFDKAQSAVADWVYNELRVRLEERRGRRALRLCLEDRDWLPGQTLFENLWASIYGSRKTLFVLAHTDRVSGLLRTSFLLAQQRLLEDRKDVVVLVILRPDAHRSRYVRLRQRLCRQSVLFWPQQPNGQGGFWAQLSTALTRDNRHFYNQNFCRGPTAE
Description: Antagonist activity at TLR9 in mouse whole blood cells assessed as inhibition of ODN-2216 induced IL-6 production by ELISA. It is filed as cell-based.

Series [7] can be described thus: Tmax in mouse at 15 mg/kg, po. Type of series: ADME, organism-based. The note with it: in vivo.
Series [8] is described as follows: Clearance in mouse at 3 mg/kg, iv. It is filed as ADME, organism-based. The note with it: in vivo.
A short description of series [9]: Volume of distribution in steady state in mouse at 3 mg/kg, iv. Type of series: ADME, organism-based. The note with it: in vivo, read-out: Vdss.
A short description of series [10]: Terminal half life in mouse at 3 mg/kg, iv. Type of series: ADME, organism-based. The note with it: in vivo, read-out: beta t1/2 (converted).
Series [11] is described as follows: Oral bioavailability in mouse at 15 mg/kg. The note with it: in vivo. Type of series: ADME, organism-based.
The target in series [12] is T2, Toll-like receptor 9.
Description: In vivo antagonist activity at TLR9 in po dosed C57BL/6 mouse assessed as reduction of CpG-ODN-1585-induced IL-6 production pretreated for 30 mins followed by CpG-ODN-1585-stimulation and measured after 120 mins by ELISA

For orientation: IC50 means the concentration needed to halve the response being measured. In general, Tmax refers to the time at which the peak concentration occurs. What is called clearance is the rate of elimination divided by the concentration. Lower therefore signals inefficient removal. Usually bioavailability stands for the share of a dose that reaches the circulation, judged against a reference dose that is usually intravenous. High values mean good availability, low ones poor availability. The term EC50 denotes the concentration that produces a half-maximal response.

Turning to `CNCCN1CCC(c2ccc3[nH]c(-c4ccc(OC)c(OC)c4)c(C(C)C)c3c2)CC1`, the IC50 at Toll-like receptor 9 [1] was 700 nM; at Toll-like receptor 4, 15.1 µM; on Toll-like receptor 9 [2], > 50 µM; at Toll-like receptor 9 [3] it was 510 nM; at Toll-like receptor 9 [4], 210 nM; at Toll-like receptor 9 [5], 320 nM. Further, the IC50 on Toll-like receptor 9 [6] worked out at 510 nM. In addition, the Tmax in series [7] is 30 min. In series [8], this compound yielded a clearance of 7.7 mL/min/kg. The Vd in series [9] was determined as 20 L/kg. The half-life in series [10] is 1920 min. In addition, the bioavailability in series [11] was 62%. This compound displayed an EC50 on Toll-like receptor 9 [12] of 25 nM.
